Experimental data as given in publication PMC12736951, “Design, Synthesis, and Biological Evaluation of 6″-Modified Apramycin Derivatives to Overcome Aminoglycoside Resistance” (Pharmaceutics, 2025).

Assays:
[1] = system: E. coli JW5503 with pJC27 β-galactosidase codon 537 reporter; test: Translation accuracy using β-galactosidase reporters; format: cell-based; conditions: 0.1 μL of 50 mg/mL, 37 °C, 18 h, codon 537 GAC/GGG reporters
Description: To evaluate translation accuracy in the presence of antibiotics, E. coli JW5503 (kanamycin resistance cassette removed as per) was transformed with pJC27 plasmids. […] The synthesis of active β-galactosidase depends on translation errors occurring (when codons GAC and GGG are read as GAA). Petri dishes (9 cm) containing 20 mL of solid LB agar (1.5%), supplemented with chloramphenicol (11.3 μg/mL) and X-Gal (80 μg/mL), were prepared. A secondary soft-agar layer comprising 3.5 mL of LB agar (0.6%) supplemented with 11.3 μg/mL chloramphenicol and 0.5 mL of liquid culture (A600~1.0) was added and allowed to solidify. Antibiotics were applied to the plates in 0.1 μL aliquots at a concentration of 50 mg/mL for tobramycin, streptomycin, kanamycin, and apramycin, and for 5a, 5b, 8a, and 8b. The plates were then incubated at 37 °C for 18 h. […] The results were documented using a Samsung Galaxy Tab A71 camera.

[2] = system: K. pneumoniae MAR18-1752; test: MIC, MDR clinical isolate; format: cell-based; conditions: Klebsiella pneumoniae, MAR181752; K. pneumoniae MAR18-1752, MDR clinical isolate (NDM-1); read-out: MIC
Description: (§1) The microbial strains used in this study were obtained from the collection of the Gause Institute of New Antibiotics. The control strains included in the analysis were S. aureus ATCC 29213, E. coli ATCC 25922, P. aeruginosa ATCC 27853, M. smegmatis ATCC 607. Clinical isolates E. coli MAR17-1350, K. pneumoniae APEX-5, K. pneumoniae MAR14-3395, and K. pneumoniae MAR18-1752 with multidrug resistance, including resistance to aminoglycosides were kindly provided by the Research Institute of Antimicrobial Chemotherapy (RIAC) of the Smolensk State Medical University, Smolensk. The microbial cultures were stored at −75 °C in trypticase soy broth (Becton, Dickinson, France) containing 10–15% glycerol. Storage was carried out in accordance with CLSI guidelines. Prior to experimentation, the bacterial strains were revived from cryopreservation by inoculating them onto trypticase soy agar (Becton, Dickinson, France) and incubating at (36 ± 1) °C for 16–24 h. Individual morphologically homogeneous colonies were then suspended in sterile physiological saline, and the turbidity of the suspension was adjusted to 0.5 McFarland units using a DEN-1 spectrophotometer (Biosan, Riga, Latvia), which corresponds to a concentration of 1.5 × 10^8 CFU/mL.
(§2) The samples were dissolved in sterile distilled water, depending on the physicochemical properties of the compounds under investigation, to a concentration of 10,000 µg/mL. Working solutions were then prepared by serial dilution, resulting in concentrations ranging from 64 µg/mL to 0.125 µg/mL.
(§3) Activity was evaluated by determining the minimum inhibitory concentration (MIC) values using the microdilution method in Mueller–Hinton Broth (Beckton and Dickinson, Le Pont-de-Claix, France), in accordance with the standard procedure for assessing the antimicrobial susceptibility of microorganisms.
(§4) The analysis was conducted in 96-well microtiter plates (Medpolymer, Saint Petersburg, Russia). The bacterial inoculum was introduced within 15 min of preparation. MIC values were determined after incubation for 15–18 h at (36 ± 1) °C. Microbial growth in the presence of the tested compounds was compared to the growth control (without exposure to the test samples). The MIC was defined as the lowest concentration at which visible microbial growth was inhibited.
(§5) To ensure the accuracy of the results, the control antibiotics kanamycin A, gentamycin, and tobramycin (Abcr GmbH, Karlsruhe, Germany) were included, along with standard reference strains: E. coli ATCC 25922. The MIC values for kanamycin A were determined as follows: E. coli ATCC 25922—1–4 µg/mL [22]. For gentamycin, the MIC values were E. coli ATCC 25922–0.25–1 µg/mL [23]. For tobramycin, the MIC values were E. coli ATCC 25922–0.25–1 µg/mL [23]. The MIC values of the reference strains were required to fall within the acceptable ranges specified in [24], provided that standard assay conditions were maintained.

[3] = system: K. pneumoniae APEX-5; test: MIC, MDR clinical isolate; format: cell-based; conditions: Klebsiella pneumoniae, APEX5; K. pneumoniae APEX-5, MDR clinical isolate (NDM-16); read-out: MIC
Description: as §1, §2, §3, §4, §5

[4] = system: K. pneumoniae MAR14-3395; test: MIC, MDR clinical isolate; format: cell-based; conditions: Klebsiella pneumoniae, MAR143395; K. pneumoniae MAR14-3395, MDR clinical isolate (NDM-1 + OXA-244); read-out: MIC
Description: as §1, §2, §3, §4, §5

[5] = system: E. coli MAR17-1350; test: MIC, MDR clinical isolate; format: cell-based; conditions: Escherichia coli, MAR171350; E. coli MAR17-1350, MDR clinical isolate (NDM-5); read-out: MIC
Description: as §1, §2, §3, §4, §5

[6] = system: E. coli JW5503 kanS; test: MIC against E. coli JW5503 parent strain; format: cell-based; conditions: Escherichia coli, JW5503KANS
Description: The determination of the MIC values was performed on five strains from the working collection of MSU. E. coli JW5503 [25], which lacked a kanamycin resistance cassette that had been removed as per the method outlined in [26], and a strain derived from this strain through in vitro selection with kanamycin. […] Strains containing AG-modifying enzymes were obtained through the transformation of E. coli JW5503 with plasmids that carried cassettes of resistance, namely pCRISPomyces-2–AAC(3)-IV (Addgene #61737), pdualrep2–APH(3′)-II [27] and pt67–ANT(3″). The MIC determination was performed as described for JW5503 in [19].

[7] = system: E. coli ATCC 25922; test: MIC, broth microdilution; format: cell-based, Escherichia coli; conditions: Escherichia coli, ATCC25922, Table 1, read-out: MIC
Description: as §1, §2, §3, §4, §5

SMILES	induction of translation errors (blue staining at edge of inhibition zone) [1]	MIC [2] [µg/mL]	MIC [3] [µg/mL]	MIC [4] [µg/mL]	MIC [5] [µg/mL]	MIC [6] [µg/mL]	MIC [7] [µg/mL]
CNC1C(OC2OC(CNCCCNC(=N)N)C(N)C(O)C2O)OC2CC(N)C(OC3C(N)CC(N)C(O)C3O)OC2C1O (stereo not shown) [Compound 8b, 6″-((3-Guanidinopropyl-1)-amino)-6″-deoxyapramycin acetate]	caused blue staining of the bacterial lawn	2	2	4	4	16	1
CNC1C(OC2OC(CNCCN)C(N)C(O)C2O)OC2CC(N)C(OC3C(N)CC(N)C(O)C3O)OC2C1O (stereo not shown) [Compound 5a, 6″-((2-Aminoethyl-1)-amino)-6″-deoxyapramycin acetate]	caused blue staining of the bacterial lawn	4	4	4	4	16	2
CNC1C(OC2OC(CNCCCN)C(N)C(O)C2O)OC2CC(N)C(OC3C(N)CC(N)C(O)C3O)OC2C1O (stereo not shown) [Compound 5b, 6″-((3-Aminopropyl-1)-amino)-6″-deoxyapramycin acetate]	caused blue staining of the bacterial lawn	8	8	8	8	32	2
CNC1C(OC2OC(CNCCNC(=N)N)C(N)C(O)C2O)OC2CC(N)C(OC3C(N)CC(N)C(O)C3O)OC2C1O (stereo not shown) [Compound 8a, 6″-((2-Guanidinoethyl-1)-amino)-6″-deoxyapramycin acetate]	caused blue staining of the bacterial lawn	2	1	2	4	8	1
